The record followed here is patent US20070128217A1 (priority 2003, published 2007).

The test system of test [1] is control sera (pooled serum of ten healthy LUMC hospital workers; commercial negative donor pooled serum from the Dutch bloodbank). Type of test: binding, human. Also noted: Binding of Control serum LUMC to linear peptides / Binding of Control serum Blood-bank to linear peptides / Binding of Control serum LUMC to looped peptides / Binding of Control Serum Blood-Bank to Looped peptides / Binding of Control serum LUMC to linear peptides of the protein M of SARS-CoV Urbani / Binding of Control serum Blood-bank to linear peptides of the protein M of SARS-CoV Urbani / Binding of Control serum LUMC to looped peptides of the protein M of SARS-CoV Urbani / Binding of Control Serum Blood-Bank to Looped peptides of the protein M of SARS-CoV Urbani: unit not given here.

Test [2] has as its system antibodies in sera from SARS patients (sera 1a, 1b, 2, 6, 37, 62, London, SARS-yellow, SARS-green). Type of test: binding, human. Set-up: Binding of serum 6 to linear peptides of protein X1 of SARS-CoV Urbani / Binding of serum 37 to linear peptides of protein X1 of SARS-CoV Urbani / Binding of serum 6 to looped/cyclic peptide (PEPSCAN-ELISA) / Binding of serum 37 to looped/cyclic peptide (PEPSCAN-ELISA) / Binding of serum 37 to looped/cyclic peptides of protein X1 of SARS-CoV Urbani / Binding of serum 6 to linear peptides of protein X2 / Binding of serum 37 to linear peptides of protein X2 / Binding of serum 37 to looped/cyclic peptides of protein X2 of SARS-CoV Urbani / Binding of serum 6 to linear peptides of protein M of SARS-CoV Urbani / Binding of serum 37 to linear peptides of protein M of SARS-CoV Urbani / Binding of serum 6 to looped/cyclic peptides of protein M of SARS-CoV Urbani / Binding of serum 37 to looped/cyclic peptides of protein M of SARS-CoV Urbani / Binding of serum 6 to linear peptides of protein X3 of SARS-CoV Urbani / Binding of serum 37 to linear peptides of protein X3 of SARS-CoV Urbani / Binding of serum 37 to looped/cyclic peptides of protein X3 of SARS-CoV Urbani / Binding of serum 6 to linear peptides of protein X4 of SARS-CoV Urbani / Binding of serum 37 to linear peptides of protein X4 of SARS-CoV Urbani / Binding of serum 37 to looped/cyclic peptides of protein X4 of SARS-CoV Urbani / Binding of serum 6 to linear peptides of protein X5 of SARS-CoV Urbani / Binding of serum 37 to linear peptides of protein X5 of SARS-CoV Urbani / Binding of serum 37 to looped/cyclic peptides of protein X5 of SARS-CoV Urbani / Binding of serum 6 to linear peptides of protein N of SARS-CoV Urbani / Binding of serum 37 to linear peptides of protein N of SARS-CoV Urbani / Binding of serum 6 to linear peptide (PEPSCAN-ELISA) / Binding of serum 1a to looped/cyclic peptides of protein N of SARS-CoV Urbani / Binding of serum 1b to looped/cyclic peptides of protein N of SARS-CoV Urbani / Binding of serum 2 to looped/cyclic peptides of protein N of SARS-CoV Urbani / Binding of serum 6 to looped/cyclic peptides of protein N of SARS-CoV Urbani / Binding of serum 37 to looped/cyclic peptides of protein N of SARS-CoV Urbani / Binding of serum 62 to looped/cyclic peptides of protein N of SARS-CoV Urbani / Binding of serum London to looped/cyclic peptides of protein N of SARS-CoV Urbani / Binding of serum SARS-green to looped/cyclic peptides of protein N of SARS-CoV Urbani: unit not given here.

Test [3] concerns rabbit serum obtained by immunizing a rabbit with the SARS-CoV strain Frankfurt 1. Type of test: binding. Set-up: Binding of a rabbit serum to linear peptides / Binding of a rabbit serum to looped peptides / Rabbit serum linear peptides / Rabbit serum looped peptides / Binding of a rabbit serum to linear peptides of protein N of SARS-CoV Urbani (Rabbit serum linear peptides) / Binding of a rabbit serum to looped/cyclic peptides of protein N of SARS-CoV Urbani (Rabbit serum looped peptides): unit not given here.

For ITTDTGIENATFFIF, in test [1], the “Binding of Control Serum Blood-Bank to Looped peptides” value was determined as 0.6, the “Binding of Control serum Blood-bank to linear peptides” value amounted to 0.4, the “Binding of Control serum LUMC to linear peptides” value is 0.9 and the “Binding of Control serum LUMC to looped peptides” value was determined as 0.9. For the same sequence, in test [2], the “Binding of serum 1a to linear peptides of protein X1 of SARS-CoV Urbani” value turned out to be 0.8, the “Binding of serum 1a to looped/cyclic peptides of protein X1 of SARS-CoV Urbani” value is reported as 0.7, the “Binding of serum 1b to linear peptides of protein X1 of SARS-CoV Urbani” value came to 0.7 and the “Binding of serum 1b to looped/cyclic peptides of protein X1 of SARS-CoV Urbani” value came to 0.6. Besides, in test [2], the “Binding of serum 2 to linear peptides of protein X1 of SARS-CoV Urbani” value is given as 0.6, the “Binding of serum 2 to looped/cyclic peptides of protein X1 of SARS-CoV Urbani” value is 0.6, the “Binding of serum 6 to linear peptides of protein X1 of SARS-CoV Urbani” value amounted to 0.5 and the “Binding of serum 6 to looped/cyclic peptides of protein X1 of SARS-CoV Urbani” value is given as 0.5. In test [2], the “Binding of serum 37 to linear peptides of protein X1 of SARS-CoV Urbani” value is recorded as 0.6, the “Binding of serum 37 to looped/cyclic peptides of protein X1 of SARS-CoV Urbani” value came out at 0.9, the “Binding of serum 62 to linear peptides of protein X1 of SARS-CoV Urbani” value came to 0.5 and the “Binding of serum 62 to looped/cyclic peptides of protein X1 of SARS-CoV Urbani” value is 0.8. For the same sequence, in test [2], the “Binding of serum London to linear peptides of protein X1 of SARS-CoV Urbani” value turned out to be 0.3, the “Binding of serum London to looped/cyclic peptides of protein X1 of SARS-CoV Urbani” value was determined as 0.3, the “Binding of serum SARS-green to linear peptides of protein X1 of SARS-CoV Urbani” value is given as 0.3 and the “Binding of serum SARS-green to looped/cyclic peptides of protein X1 of SARS-CoV Urbani” value was found to be 0.6. Besides, in test [2], the “Binding of serum SARS-yellow to linear peptides of protein X1 of SARS-CoV Urbani” value was found to be 0.5 and the “Binding of serum SARS-yellow to looped/cyclic peptides of protein X1 of SARS-CoV Urbani” value was found to be 0.7. In addition, in test [3], the “Binding of a rabbit serum to linear peptides” value is on record as 0.1 and the “Binding of a rabbit serum to looped peptides” value turned out to be 0.6.

With ITVATSRTLSYYKLG, in test [1], the “Binding of Control Serum Blood-Bank to Looped peptides of the protein M of SARS-CoV Urbani” value worked out at 0.5, the “Binding of Control serum Blood-bank to linear peptides of the protein M of SARS-CoV Urbani” value was determined as 0.8, the “Binding of Control serum LUMC to linear peptides of the protein M of SARS-CoV Urbani” value amounted to 0.7 and the “Binding of Control serum LUMC to looped peptides of the protein M of SARS-CoV Urbani” value was 0.6. Also, in test [2], the “Binding of serum 1a to linear peptides of protein M of SARS-CoV Urbani” value is 0.6, the “Binding of serum 1a to looped/cyclic peptides of protein M of SARS-CoV Urbani” value is listed as 1.0, the “Binding of serum 1b to linear peptides of protein M of SARS-CoV Urbani” value was determined as 0.4 and the “Binding of serum 1b to looped/cyclic peptides of protein M of SARS-CoV Urbani” value is listed as 0.6. Moreover, in test [2], the “Binding of serum 2 to linear peptides of protein M of SARS-CoV Urbani” value is 0.5, the “Binding of serum 2 to looped/cyclic peptides of protein M of SARS-CoV Urbani” value was 0.8, the “Binding of serum 6 to linear peptides of protein M of SARS-CoV Urbani” value came to 0.5 and the “Binding of serum 6 to looped/cyclic peptides of protein M of SARS-CoV Urbani” value came out at 1.1. Also, in test [2], the “Binding of serum 37 to linear peptides of protein M of SARS-CoV Urbani” value was 0.4, the “Binding of serum 37 to looped/cyclic peptides of protein M of SARS-CoV Urbani” value worked out at 0.3, the “Binding of serum 62 to linear peptides of protein M of SARS-CoV Urbani” value is given as 0.4 and the “Binding of serum 62 to looped/cyclic peptides of protein M of SARS-CoV Urbani” value is reported as 0.6. Further, in test [2], the “Binding of serum London to linear peptides of protein M of SARS-CoV Urbani” value is 0.3, the “Binding of serum London to looped/cyclic peptides of protein M of SARS-CoV Urbani” value came out at 0.4, the “Binding of serum SARS-green to linear peptides of protein M of SARS-CoV Urbani” value is given as 0.5 and the “Binding of serum SARS-green to looped/cyclic peptides of protein M of SARS-CoV Urbani” value is recorded as 0.4. Besides, in test [2], the “Binding of serum SARS-yellow to linear peptides of protein M of SARS-CoV Urbani” value turned out to be 0.2 and the “Binding of serum SARS-yellow to looped/cyclic peptides of protein M of SARS-CoV Urbani” value is on record as 0.4. For the same sequence, in test [3], the “Rabbit serum linear peptides” value came out at 0.2 and the “Rabbit serum looped peptides” value stood at 0.4.

Take IVFTSCELYHYQECV: in test [1], the “Binding of Control Serum Blood-Bank to Looped peptides” value amounted to 0.8, the “Binding of Control serum Blood-bank to linear peptides” value is listed as 0.8, the “Binding of Control serum LUMC to linear peptides” value amounted to 0.8 and the “Binding of Control serum LUMC to looped peptides” value amounted to 0.9. Moreover, in test [2], the “Binding of serum 1a to linear peptides of protein X4 of SARS-CoV Urbani” value is given as 0.8, the “Binding of serum 1a to looped/cyclic peptides of protein X4 of SARS-CoV Urbani” value is given as 0.9, the “Binding of serum 1b to linear peptides of protein X4 of SARS-CoV Urbani” value is 0.9 and the “Binding of serum 1b to looped/cyclic peptides of protein X4 of SARS-CoV Urbani” value is recorded as 0.8. In test [2], the “Binding of serum 2 to linear peptides of protein X4 of SARS-CoV Urbani” value was 0.6, the “Binding of serum 2 to looped/cyclic peptides of protein X4 of SARS-CoV Urbani” value was determined as 0.8, the “Binding of serum 6 to linear peptides of protein X4 of SARS-CoV Urbani” value was 0.8 and the “Binding of serum 6 to looped/cyclic peptides of protein X4 of SARS-CoV Urbani” value came out at 0.6. In test [2], the “Binding of serum 37 to linear peptides of protein X4 of SARS-CoV Urbani” value amounted to 1.0, the “Binding of serum 37 to looped/cyclic peptides of protein X4 of SARS-CoV Urbani” value is 1.0, the “Binding of serum 62 to linear peptides of protein X4 of SARS-CoV Urbani” value is 1.0 and the “Binding of serum 62 to looped/cyclic peptides of protein X4 of SARS-CoV Urbani” value came out at 0.8. Further, in test [2], the “Binding of serum London to linear peptides of protein X4 of SARS-CoV Urbani” value worked out at 0.8, the “Binding of serum London to looped/cyclic peptides of protein X4 of SARS-CoV Urbani” value turned out to be 0.3, the “Binding of serum SARS-green to linear peptides of protein X4 of SARS-CoV Urbani” value stood at 0.9 and the “Binding of serum SARS-green to looped/cyclic peptides of protein X4 of SARS-CoV Urbani” value was 0.8. In test [2], the “Binding of serum SARS-yellow to linear peptides of protein X4 of SARS-CoV Urbani” value is reported as 0.4 and the “Binding of serum SARS-yellow to looped/cyclic peptides of protein X4 of SARS-CoV Urbani” value was 0.6. In test [3], the “Rabbit serum linear peptides” value was determined as 0.4 and the “Rabbit serum looped peptides” value is 0.4.

IVTRPLMESELVIGA: in test [1], the “Binding of Control Serum Blood-Bank to Looped peptides of the protein M of SARS-CoV Urbani” value came to 0.9, the “Binding of Control serum Blood-bank to linear peptides of the protein M of SARS-CoV Urbani” value was 0.7, the “Binding of Control serum LUMC to linear peptides of the protein M of SARS-CoV Urbani” value worked out at 0.8 and the “Binding of Control serum LUMC to looped peptides of the protein M of SARS-CoV Urbani” value was 1.0. In addition, in test [2], the “Binding of serum 1a to linear peptides of protein M of SARS-CoV Urbani” value was found to be 0.8, the “Binding of serum 1b to linear peptides of protein M of SARS-CoV Urbani” value was found to be 0.7, the “Binding of serum 2 to linear peptides of protein M of SARS-CoV Urbani” value is on record as 0.6 and the “Binding of serum 6 to linear peptides of protein M of SARS-CoV Urbani” value came to 0.4. Besides, in test [2], the “Binding of serum 37 to linear peptides of protein M of SARS-CoV Urbani” value came to 0.6, the “Binding of serum 62 to linear peptides of protein M of SARS-CoV Urbani” value amounted to 0.6, the “Binding of serum London to linear peptides of protein M of SARS-CoV Urbani” value is 0.3 and the “Binding of serum SARS-green to linear peptides of protein M of SARS-CoV Urbani” value was found to be 0.6. Besides, in test [2], the “Binding of serum SARS-yellow to linear peptides of protein M of SARS-CoV Urbani” value stood at 0.5; the “Recognition of the peptide by sera of SARS-CoV infected individuals, and form (linear, looped/cyclic) in which it is recognized” value was “recognized in looped/cyclic form”. Besides, in test [3], the “Rabbit serum linear peptides” value is recorded as 0.1 and the “Rabbit serum looped peptides” value is 0.4.
